The source of these data is patent US5206232A, “Fungicidal imidazole complexes” (priority 1990, dated 1993).

In one series the test system is powdery mildew. Put plainly: Fungicidal activity against powdery mildew on inoculated cucumber plants (disease index). The settings on record: cucumbers, letters in the cell = significance groups (P = 0.05). It is filed as in vivo, Sphaerotheca fuliginia. The protocol:
Cucumbers sensitive to powdery mildew were sprouted in trays and then transferred to pots of 16 cm diameter, two plants per pot. They were kept in a hot-house at 18° C.-25° C. at a relative humidity of 60%-70%. The cucumber plants were contaminated with powdery mildew collected from pumpkin leaves by passing the contaminated leaf over the leaves of the plants to be tested and the plants then sprayed with water. First treatment was with the first appearance of the disease, by spraying until dripping. All treatments were at a concentration of 0.03%, except for the commercial Myclobutanal (a systemic fungicide of Rohm and Haas Co.), where a concentration of 0.006% was used. The status of the disease was determined by three different people. The experiment was conducted in blocks, at random, with repetitions. Four blocks of four repetitions of ten treatments (total 160 pots) at three evaluation periods.

Another series concerns coffee berry disease. Put plainly: Activity against coffee berry disease (inhibition of sporulation on colonized branch sections). It is filed as in vivo, Colletotrichum coffeanum. The settings on record: for Per Cent Active Ingredient for 80% Inhibition: 80% inhibition of sporulation, by linear regression of dose response curves, three days incubation. Here is the method: The zinc complex of prochloraz was tested for its activity against coffee berry disease as follows:
Approximately 3.5 mm sections of colonized branches are washed in a solution of Teepol or similar wetting agent to remove any initial spore load. Sections are laid on moistened cellosine wadding in plastic boxes, 12 sections per box. Three boxes are sprayed with each concentration of the candidate material, closed and incubated for three days. After incubation the spores are removed by vigorous shaking of each of the 12 twigs in 10 ml water and are counted, using a haemocytometer slide. The sections of the branch are measured and their volume taken by displacement. The parameters measured were concentration of the formulation and expressed as percent active ingredient (A.I.) and percent inhibition of sporulation. The inhibition of sporulation was expressed in relation to the sporulation of unsprayed control and folpet as the standard fungicide. Each determination was done in triplicate and repeated at least three times. The dose response curves were analyzed by linear regression and the different formulations were compared at the 80% inhibition point.

The next series deals with crops. The following applies: free, non-complexed prochloraz vs metal complexes; susceptible crops; cited from earlier work.
Where [1] appears, read: 0.006% spray (commercial standard), key 0 = clean to 5 = over 50% sick.
Where [2] appears, read: 0.03% spray, key 0 = clean, 1 = 10%-20% sick, 2 = 20%-30%, 3 = 30%-40%, 4 = 40%-50%, 5 = over 50% sick.

On to `CCCCC(C#N)(Cn1cncn1)c1ccc(Cl)cc1` (racemic) [Myclobutanol, reference compound], for which, in the series with powdery mildew (setting [1]), the “Disease Index 7 Days After Treatment” value amounted to 1.34 and the “Disease Index 14 Days After Treatment” value worked out at 0.81.
Take `O=C1c2ccccc2C(=O)N1SC(Cl)(Cl)Cl` [Folpet, reference compound]: the “Per Cent Active Ingredient for 80% Inhibition” value with coffee berry disease is listed as 0.62 Per Cent Active Ingredient.
Consider `CCCN(CCOc1c(Cl)cc(Cl)cc1Cl)C(=O)n1ccnc1.CCCN(CCOc1c(Cl)cc(Cl)cc1Cl)C(=O)n1ccnc1.[Cl][Sn][Cl]` [SnCl2 complex of Prochloraz, Bis-[1-{N-propyl-N-2-(2,4,6-trichlorophenoxy)-ethyl-carbamoyl}-imidazole]-tin(II) chloride complex], for which, in the series with powdery mildew (setting [2]), the “Disease Index 14 Days After Treatment” value worked out at 0.78.
Take `CCCN(CCOc1c(Cl)cc(Cl)cc1Cl)C(=O)n1ccnc1.CCCN(CCOc1c(Cl)cc(Cl)cc1Cl)C(=O)n1ccnc1.[Cl][Zn][Cl]` [ZnCl2 complex of Prochloraz, Bis-[1-{N-propyl-N-2-(2,4,6-trichlorophenoxy)-ethyl-carbamoyl}-imidazole]-zinc chloride complex]: in the series on powdery mildew (setting [2]), the “Disease Index 7 Days After Treatment” value was 1.63 and the “Disease Index 14 Days After Treatment” value is 0.94. For the same compound, the “Per Cent Active Ingredient for 80% Inhibition” value in the series with coffee berry disease is 0.09 Per Cent Active Ingredient. The “activity against coffee berry disease (in words)” value with coffee berry disease (especially as compared to known commercial metal complexes) is listed as “very good activity”. The “activity against coffee berry disease compared to commercial "Octave"” value in the series on coffee berry disease (relative to Octave, at 80% inhibition point) is on record as “more than two times greater”.
`CCCN(CCOc1c(Cl)cc(Cl)cc1Cl)C(=O)n1ccnc1` [prochloraz, 1-[N-propyl-N-2-(2,4,6-trichlorophenoxy)-ethyl-carbamoyl]-imidazole]: the phytotoxicity entry with crops is given as “phytotoxic to some crops”.
For the compound “Bis-[1-{N-propyl-N-2-(2,4,6-trichlorophenoxy)-ethyl-carbamoyl}-imidazole]-cobalt (II) chloride complex [CoCl2 complex of Prochloraz]”, in the series with powdery mildew (setting [2]), the “Disease Index 7 Days After Treatment” value was 2.06 and the “Disease Index 14 Days After Treatment” value is listed as 1.38.
